Values joined by “and” are separate entries in the source; they are usually repeats but may differ in a detail not shown here. Equal entries are not always repeated.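 Dose response: 5 concentrations. Exposure: 48 h. Format: 96-well plates. Endpoint: linear interpolation; highest concentration if not reached. GI50 = concentration required for 50% inhibition of growth. Definition used: TGI = concentration required for complete inhibition of growth.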
How the values were obtained:
Experiment in all cases: NCI anticancer screen, dose series, 48 h
NCI-H226 lung = tested on: NCI-H226 lung
LXFL 529 NSCLC = tested on: LXFL 529 NSCLC
786-0 renal = tested on: 786-0 renal
M14 melanoma = tested on: M14 melanoma
UO-31 renal = tested on: UO-31 renal
HOP-18 NSCLC = tested on: HOP-18 NSCLC
CAKI-1 renal = tested on: CAKI-1 renal
MDA-MB-435 = tested on: MDA-MB-435
NCI/ADR-RES ovarian = tested on: NCI/ADR-RES ovarian
BT-549 breast = tested on: BT-549 breast

Compound	TGI (NCI-H226 lung)	TGI (LXFL 529 NSCLC)	TGI (786-0 renal)	TGI (M14 melanoma)	TGI (UO-31 renal)	TGI (HOP-18 NSCLC)	TGI (CAKI-1 renal)	GI50 (NCI-H226 lung)	GI50 (LXFL 529 NSCLC)	GI50 (786-0 renal)	GI50 (MDA-MB-435)	TGI (MDA-MB-435)	GI50 (M14 melanoma)	GI50 (NCI/ADR-RES ovarian)	TGI (NCI/ADR-RES ovarian)	GI50 (CAKI-1 renal)	GI50 (UO-31 renal)	TGI (BT-549 breast)	GI50 (HOP-18 NSCLC)	GI50 (BT-549 breast)
CCc1oc2ccc(OC)c3c2c1C=CC=C3	> 100 µM	> 100 µM	> 100 µM	> 100 µM	> 100 µM															
CC(C)(C)C[P+](C)(C)c1ccccc1	> 100 µM	> 100 µM	> 100 µM	> 100 µM	> 100 µM	> 100 µM	> 100 µM													
COC(=O)C1=Cc2c(OC)cc(OC)c(OC)c2[C@H](c2cc(OC)c(OC)cc2OC)C1C(=O)OC (stereo partly specified)	> 100 µM	> 100 µM	> 100 µM	> 100 µM	> 100 µM		> 100 µM													
CP(C)C.[Ag][I]	> 100 µM	31.8 µM	> 100 µM	> 100 µM	> 100 µM	> 100 µM	> 100 µM													
N#CC12Cc3ccc4c(c3-c3cccc(c31)CCN2C(=O)c1ccccc1)OCO4 (stereo unspecified)	> 100 µM	> 100 µM	> 100 µM	> 100 µM	> 100 µM	> 100 µM														
Cc1cccc(N=C2NC(=O)C(CC(=O)Nc3ccc(Cl)cc3C)S2)c1 (stereo unspecified)	> 100 µM	> 100 µM	> 100 µM	> 100 µM	> 100 µM	> 100 µM	> 100 µM													
CCOC(=O)N1CCC(=O)C[C@@H]1C/C=C/P1(=O)O[C@H](c2ccccc2)C(C)N1C(C)C (stereo partly specified)	> 100 µM	> 100 µM	> 100 µM		> 100 µM		> 100 µM													
CC1=NN(c2ccccc2)C(=O)C1N=Nc1ccc(Br)c(C)c1 (stereo unspecified)	> 100 µM	> 100 µM	> 100 µM	> 100 µM		> 100 µM	> 100 µM													
C[C@]12CCCC(=O)C1C[C@H](C(=O)O)CC2 (stereo partly specified)	> 100 µM	> 100 µM	> 100 µM	> 100 µM	> 100 µM	> 100 µM	> 100 µM													
O=[N+]([O-])c1cc(/C=N/NS(=O)(=O)c2ccc(F)cc2)c(O)c([N+](=O)[O-])c1			> 100 µM	52.2 µM	> 100 µM	> 100 µM	> 100 µM													
CC12OC3CC(O1)C1(C=O)C4CCC5(C)C(c6ccc(=O)oc6)CCC5(O)C4CCC1(C3)O2 (stereo unspecified)	1.23 µM	0.432 µM	0.246 µM	0.596 µM	0.97 µM	0.748 µM	0.729 µM													
O=C1CCC(=O)C(C(=O)CCC(=O)Nc2cccc(Cl)c2)C1 (stereo unspecified)	> 100 µM	> 100 µM	> 100 µM	> 100 µM	> 100 µM	> 100 µM	> 100 µM													
NC(=O)CCC(NC(=O)C(F)(F)F)C(=O)O (stereo unspecified)	> 100 µM	> 100 µM	> 100 µM	> 100 µM	> 100 µM	> 100 µM	> 100 µM													
C=C=[CH][Sn]([c]1ccccc1)([c]1ccccc1)[c]1ccccc1	4.6 µM	3.02 µM	2.92 µM	3.47 µM	3.18 µM		4.29 µM	2.28 µM	1.58 µM	1.51 µM	1.3 µM	2.68 µM	1.81 µM	2.19 µM	5.94 µM	1.74 µM	1.44 µM			
CS(=O)(=O)c1nc(Cl)c(Cl)c(C#N)c1Cl	24.6 µM	2.99 µM	4.11 µM	3.64 µM	4.31 µM	11.5 µM	1.69 µM					7 µM			6.19 µM			3.37 µM		
Cc1cc(C)c2[s+]snc2c1	> 100 µM	> 100 µM	> 100 µM	> 100 µM	> 100 µM	> 100 µM	> 100 µM													
OC1C2C=CCC1CCC2 (stereo unspecified)	> 100 µM		> 100 µM	> 100 µM	> 100 µM	> 100 µM	> 100 µM													
CCOC(=O)C1(Cc2ccc3ccccc3c2)CCCCCN1 (stereo unspecified)		> 100 µM	34.2 µM	48.1 µM	82.1 µM	> 100 µM	> 100 µM													
CCOC(=O)CNC(=O)C(CSC(=O)N(C)O)NC(=O)CCC(N)C(=O)O (stereo unspecified)	> 2000 µM	> 2000 µM	> 2000 µM	> 2000 µM	> 2000 µM	> 2000 µM	> 2000 µM	> 2000 µM	> 2000 µM	> 2000 µM			> 2000 µM			> 2000 µM	> 2000 µM		> 2000 µM	
C/C(=N\Nc1cccc(Cl)n1)c1ccccn1	6.57 µM		17.5 µM	14.3 µM	4.33 µM		7.31 µM	0.978 µM		0.671 µM	1.78 µM	> 100 µM	0.737 µM	0.441 µM	12.8 µM	0.437 µM	0.466 µM	> 71.8 µM		1.4 µM
O=P1(O)c2ccccc2CS(=O)(=O)Cc2ccccc21	> 100 µM		> 100 µM	> 100 µM	> 100 µM		> 100 µM					> 100 µM			> 100 µM			> 100 µM		
N#CSCC(=O)c1ccc(Cl)cc1	33.3 µM		21.3 µM	15.1 µM	13.5 µM		1.16 µM	10.8 µM		4.96 µM	2.28 µM	6.37 µM	3.4 µM	3.11 µM	11 µM	0.0182 µM	3.23 µM	11.4 µM		2.69 µM
COC(=O)Nc1nc2ccc(Sc3ccccc3)cc2[nH]1	1.7 µM		14.6 µM	1.43 µM	20.5 µM		> 43.5 µM	0.291 µM		0.323 µM	0.0307 µM	0.111 µM	0.0892 µM	0.0674 µM	0.461 µM	0.225 µM	0.848 µM	18.8 µM		1.04 µM
O=c1[nH]c2c(O)cccc2c2cc3c(c(O)c12)OCO3	55 µM	73.1 µM	> 100 µM	52.4 µM	54.1 µM	0.877 µM	40.8 µM													
CC(C)[O-].CC(C)[O-].[O-]c1cccc2cccnc12.[O-]c1cccc2cccnc12.[Ti+4]	> 100 µM		20.9 µM	> 100 µM	> 100 µM	> 100 µM	> 100 µM	> 100 µM		3.38 µM and 4.05 µM			9.68 µM and 10.8 µM				> 100 µM			
ClC1=C(Cl)C(Cl)=C(Cl)C1=Cc1ccc(Cl)cc1	1.86 µM		1.64 µM	0.904 µM	2.52 µM			0.389 µM		0.604 µM	0.507 µM	2.95 µM	0.287 µM	0.366 µM	2.15 µM	0.429 µM	0.539 µM	1.58 µM		0.428 µM
Cc1cc2c(cc1C)[n+]([O-])c(-c1c(Cl)cccc1Cl)c(N)[n+]2[O-]	74.4 µM	> 100 µM	> 100 µM	> 100 µM	88.8 µM	86.4 µM	95.1 µM													
